Source: patent publication US20060013780A1, “N,N'-dialkyl derivatives of polyhydroxyalkyl alkylenediamines” (priority 2004, published 2006)

Tests used:
[1] = Equilibrium surface tension, Kruss K-12 tensiometer with platinum Wilhelmy plate; assay type: physicochemical; details: 25±1° C.; for EST (0.01 WT %, mN/m): 0.01 wt % in water; for EST (0.1 WT %, mN/m): 0.1 wt % in water; for EST (1.0 WT %, mN/m): 1.0 wt % in water
Experimental: Equilibrium surface tensions were determined using a Kruss K-12 tensiometer with a platinum Wilhelmy plate, maintaining the temperature at 25±1° C. by means of a constant temperature circulating bath.

[2] = Cleaning performance, ASTM D4488-95, reflectance of white vinyl composition tile; details: 0.1% (wt %) surfactant
Text: Although dynamic and equilibrium surface tension as well as foam influence the cleaning ability of a surfactant, other factors also affect cleaning performance. Thus one good way to determine the cleaning ability of a surfactant is to apply a soil to a substrate, clean that substrate with the surfactant of interest and some benchmark surfactants, and compare relative cleaning efficacies in terms of percent soil removal. One method for conducting such testing is described in ASTM D4488-95, “Standard Guide for Testing Cleaning Performance of Products Intended for Use on Resilient Flooring and Washable Walls.” This method was followed according to the particulate and oily soil/vinyl tiles test methodology, with cleaning performance being evaluated by reading average reflectance values (5 readings/tile) of a white vinyl composition tile before and after cleaning (Table 6). The higher the reflectance value the better the cleaning ability of the surfactant.
The cleaning performance of surfactants according to the invention was compared side by side with that of two benchmark surfactants, Neodol 23-6.5 (available from Shell Chemical of Houston, Tex.) and AG 6202 (available from Akzo Nobel of McCook, Ill.), an alcohol ethoxylate and an alkylpolyglucoside surfactant, respectively.

[3] = Ross-Miles foam test (modified, ASTM D1173-53); assay type: physicochemical; details: surfactant in water; 0.01 wt % and 0.1 wt %, table does not say which
[4] = Dynamic surface tension, maximum bubble pressure method; assay type: physicochemical; details: for DST (0.1 WT %, mN/m) 0.1 b/s / DST (0.1 WT %, mN/m) 10 b/s: 0.1 wt % in distilled and deionized water; for DST (0.1 WT %, mN/m) 0.1 b/s / DST (0.5 WT %, mN/m) 0.1 b/s: 0.1 bubbles/sec; for DST (0.1 WT %, mN/m) 10 b/s / DST (0.5 WT %, mN/m) 10 b/s: 10 bubbles/sec; for DST (0.5 WT %, mN/m) 0.1 b/s / DST (0.5 WT %, mN/m) 10 b/s: 0.5 wt % in distilled and deionized water
Experimental: Solutions in distilled and deionized water of the surfactants of the invention were prepared. […] In a practical sense, high surface creation rates refer to rapid processes such as a spray or roller-applied coating, a high speed printing operation, or the rapid application of an agricultural product or a cleaner.

[5] = Aqueous solubility comparison; details: in water
Experimental: Comparison of the aqueous solubilities of several N,N′-dialkyl-N,N′-bis(1-deoxyglucityl)ethylenediamines was performed, with the results as follows:
The ratios of compounds are on a molar basis.

CCCCN(CCN(CCCC)C[C@H](O)[C@@H](O)[C@H](O)[C@H](O)CO)C[C@H](O)[C@@H](O)[C@H](O)[C@H](O)CO [DBDGEDA, N,N′-dibutyl-N,N′-bis(1-deoxyglucityl)-1,2-diaminoethane]
EST (0.01 WT %, mN/m) [1]: 62 mN/m | EST (0.1 WT %, mN/m) [1]: 50 mN/m | EST (1.0 WT %, mN/m) [1]: 47 mN/m | % SOIL REMOVAL [2]: 45% | Ross Miles Final Foam (cm) [3]: 0.5 cm | Ross Miles Initial Foam (cm) [3]: 1.8 cm | DST (0.1 WT %, mN/m) 0.1 b/s [4]: 63 mN/m | DST (0.1 WT %, mN/m) 10 b/s [4]: 67 mN/m | DST (0.5 WT %, mN/m) 0.1 b/s [4]: 56 mN/m | DST (0.5 WT %, mN/m) 10 b/s [4]: 47 mN/m | dynamic surface tension reduction in words ([4]; Table 4 data, strong at low bubble rates): moderate to low

CCCCCCN(CCN(CCCCCC)C[C@H](O)[C@@H](O)[C@H](O)[C@H](O)CO)C[C@H](O)[C@@H](O)[C@H](O)[C@H](O)CO [DHDGEDA, N,N′-dihexyl-N,N′-bis(1-deoxyglucityl)-1,2-diaminoethane]
EST (0.01 WT %, mN/m) [1]: 57 mN/m | EST (0.1 WT %, mN/m) [1]: 33 mN/m | EST (1.0 WT %, mN/m) [1]: 30 mN/m | % SOIL REMOVAL [2]: 67% | Ross Miles Final Foam (cm) [3]: 1.5 cm | Ross Miles Initial Foam (cm) [3]: 3.6 cm | DST (0.1 WT %, mN/m) 0.1 b/s [4]: 37 mN/m | DST (0.1 WT %, mN/m) 10 b/s [4]: 51 mN/m | DST (0.5 WT %, mN/m) 0.1 b/s [4]: 30 mN/m | DST (0.5 WT %, mN/m) 10 b/s [4]: 32 mN/m | aqueous solubility in words [5]: extreme insolubility

CCCCNC[C@H](O)[C@@H](O)[C@H](O)[C@H](O)CO [N-Butylglucamine]
EST (1.0 WT %, mN/m) [1]: ≧50 mN/m | Ross Miles Final Foam (cm) [3]: 0.3 cm | Ross Miles Initial Foam (cm) [3]: 2.5 cm | DST (0.1 WT %, mN/m) 0.1 b/s [4]: 71 mN/m | DST (0.1 WT %, mN/m) 10 b/s [4]: 72 mN/m | DST (0.5 WT %, mN/m) 0.1 b/s [4]: 70 mN/m | DST (0.5 WT %, mN/m) 10 b/s [4]: 71 mN/m

CCCCCCNC[C@H](O)[C@@H](O)[C@H](O)[C@H](O)CO [N-Hexylglucamine]
EST (0.01 WT %, mN/m) [1]: 64 mN/m | EST (0.1 WT %, mN/m) [1]: 60 mN/m | EST (1.0 WT %, mN/m) [1]: 52 mN/m | Ross Miles Final Foam (cm) [3]: 1.0 cm | Ross Miles Initial Foam (cm) [3]: 2.0 cm | DST (0.1 WT %, mN/m) 0.1 b/s [4]: 68 mN/m | DST (0.1 WT %, mN/m) 10 b/s [4]: 70 mN/m | DST (0.5 WT %, mN/m) 0.1 b/s [4]: 55 mN/m | DST (0.5 WT %, mN/m) 10 b/s [4]: 57 mN/m

CCCCCCCCNC[C@H](O)[C@@H](O)[C@H](O)[C@H](O)CO [N-Octylglucamine]
EST (0.01 WT %, mN/m) [1]: 55 mN/m | EST (0.1 WT %, mN/m) [1]: 35 mN/m | EST (1.0 WT %, mN/m) [1]: 35 mN/m | Ross Miles Final Foam (cm) [3]: 0.3 cm | Ross Miles Initial Foam (cm) [3]: 2.0 cm | DST (0.1 WT %, mN/m) 0.1 b/s [4]: 54 mN/m | DST (0.1 WT %, mN/m) 10 b/s [4]: 65 mN/m | DST (0.5 WT %, mN/m) 0.1 b/s [4]: 48 mN/m | DST (0.5 WT %, mN/m) 10 b/s [4]: 62 mN/m

N,N′-dioctyl-N,N′-bis(1-deoxyglucityl)ethylenediamine [DODGEDA]
% SOIL REMOVAL [2]: 48%
